Measured values reported in patent publication US11932658B2 (BRISTOL-MYERS SQUIBB COMPANY, priority 2016, dated 2024).

Biological target: T1, PAR4 (Homo sapiens, UniProt Q96RI0)
T1 construct: expressed in transfected cells; host or cells: HEK293 PAR4 Clone 1.2A (BMS Arctic ID 383940)
T1 sequence (Q96RI0 18-385): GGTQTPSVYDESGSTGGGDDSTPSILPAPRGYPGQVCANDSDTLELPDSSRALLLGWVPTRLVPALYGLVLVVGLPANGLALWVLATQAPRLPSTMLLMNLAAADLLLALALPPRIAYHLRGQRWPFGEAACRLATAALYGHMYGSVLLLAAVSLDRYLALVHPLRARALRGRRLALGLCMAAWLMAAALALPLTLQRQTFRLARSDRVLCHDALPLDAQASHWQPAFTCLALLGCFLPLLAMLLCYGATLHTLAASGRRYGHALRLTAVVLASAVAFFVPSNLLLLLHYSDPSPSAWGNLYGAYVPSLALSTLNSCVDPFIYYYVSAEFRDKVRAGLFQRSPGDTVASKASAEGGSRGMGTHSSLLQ
Assay: PAR4 FLIPR assay (antagonism of agonist peptide-induced calcium mobilization)
Assay type: cell-based
Method in brief: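 Antagonism was taken as block of calcium mobilization evoked by the agonist peptide H-Ala-Phe(4-F)-Pro-Gly-Trp-Leu-Val-Lys-Asn-[…]-NH2, added after 30 min room-temperature compound preincubation in dye-loaded PAR4-transfected HEK293 cells (endogenous PAR1). Fluorescence was read on FDSS, with compound addition alone used as the agonist counter-screen; values come from 11-point concentration-response curves.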

IC50 [nM] | SMILES
1.7 | COc1cnc2c(-c3nc4ccc5c(c4s3)OC[C@H](COC(=O)Nc3cnc4[nH]ccc4c3)O5)cc(C)cc2n1 [Example 107, (R)-(2-(2-methoxy-7-methylquinoxalin-5-yl)-7,8-dihydro-[1,4]dioxino[2′,3′:3,4]benzo [1,2-d]thiazol-7-yl)methyl 1H-pyrrolo[2,3-b]pyridin-5-ylcarbamate]
1.8 | COc1cnc2c(-c3nc4ccc5c(c4s3)OC[C@H](COC(=O)Nc3cccnc3)O5)cc(C)cc2n1 [Example 108, (R)-(2-(2-methoxy-7-methylquinoxalin-5-yl)-7,8-dihydro-[1,4]dioxino[2′,3′:3,4]benzo[1,2-d]thiazol-7-yl)methyl pyridin-3-ylcarbamate]
2.6 | COc1cnc2c(-c3nc4ccc5c(c4s3)OC[C@H](COC(=O)Nc3ccc(Br)nc3)O5)cc(C)cc2n1 [Example 109, (R)-(2-(2-methoxy-7-methylquinoxalin-5-yl)-7,8-dihydro-[1,4]dioxino[2′,3′:3,4]benzo[1,2-d]thiazol-7-yl)methyl (6-bromopyridin-3-yl)carbamate]
1.6 | C=Cc1ccc(NC(=O)OC[C@H]2COc3c(ccc4nc(-c5cc(C)cc6nc(OC)cnc56)sc34)O2)cn1 [Example 110, (R)-(2-(2-methoxy-7-methylquinoxalin-5-yl)-7,8-dihydro-[1,4]dioxino[2′,3′:3,4]benzo[1,2-d]thiazol-7-yl)methyl (6-vinylpyridin-3-yl)carbamate]
2.3 | COc1cnc2c(-c3nc4ccc5c(c4s3)OC[C@H](COC(=O)Nc3ccc([C@H](O)CO)nc3)O5)cc(C)cc2n1 [Example 111, ((R)-2-(2-methoxy-7-methylquinoxalin-5-yl)-7,8-dihydro-[1,4]dioxino[2′,3′:3,4]benzo [1,2-d]thiazol-7-yl)methyl (6-((S)-1,2-dihydroxyethyl)pyridin-3-yl)carbamate]
7.1 | COc1cnc2c(-c3nc4ccc5c(c4s3)OC[C@H](COC(=O)Nc3ccc(F)nc3)O5)cc(C)cc2n1 [Example 112, (R)-(2-(2-methoxy-7-methylquinoxalin-5-yl)-7,8-dihydro-[1,4]dioxino[2′,3′:3,4]benzo[1,2-d]thiazol-7-yl)methyl (6-fluoropyridin-3-yl)carbamate]
1.9 | COc1cnc2c(-c3nc4ccc5c(c4s3)OC[C@H](COC(=O)Nc3cncc(C#N)c3)O5)cc(C)cc2n1 [Example 113, (R)-(2-(2-methoxy-7-methylquinoxalin-5-yl)-7,8-dihydro-[1,4]dioxino[2′,3′:3,4]benzo[1,2-d]thiazol-7-yl)methyl (5-cyanopyridin-3-yl)carbamate]
1 | COc1cnc2c(-c3nc4ccc5c(c4s3)OC[C@H](COC(=O)Nc3ccc(C(=O)N4CCOCC4)cc3)O5)cc(C)cc2n1 [Example 114, (R)-(2-(2-methoxy-7-methylquinoxalin-5-yl)-7,8-dihydro-[1,4]dioxino[2′,3′:3,4]benzo [1,2-d]thiazol-7-yl)methyl (4-(morpholine-4-carbonyl)phenyl)carbamate]
1.4 | COc1cnc2c(-c3nc4c(C)cc5c(c4s3)OCC(COC(=O)Nc3ccc(Cl)nc3)O5)cc(C)cc2n1 (stereo not shown) [Example 115, (2-(2-methoxy-7-methylquinoxalin-5-yl)-4-methyl-7,8-dihydro-[1,4]dioxino[2′,3′:3,4]benzo [1,2-d]thiazol-7-yl)methyl (6-chloropyridin-3-yl)carbamate]
3.4 | COc1cnc2c(-c3nc4c(C)cc5c(c4s3)OCC(COC(=O)Nc3ccc(N(C)C)nc3)O5)cc(C)cc2n1 (stereo not shown) [Example 116, (2-(2-methoxy-7-methylquinoxalin-5-yl)-4-methyl-7,8-dihydro-[1,4]dioxino[2′,3′:3,4]benzo[1,2-d]thiazol-7-yl)methyl (6-(dimethylamino)pyridin-3-yl)carbamate]
1.1 | COc1cnc2c(-c3nc4c(C)cc5c(c4s3)OCC(COC(=O)Nc3ccnc(-c4ccccc4)c3)O5)cc(C)cc2n1 (stereo not shown) [Example 117, (2-(2-methoxy-7-methylquinoxalin-5-yl)-4-methyl-7,8-dihydro-[1,4]dioxino[2′,3′:3,4]benzo[1,2-d]thiazol-7-yl)methyl (2-phenylpyridin-4-yl)carbamate]
16 | COc1cnc2c(-c3nc4c(C)cc5c(c4s3)OCC(COC(=O)Nc3ccnc(F)c3)O5)cc(C)cc2n1 (stereo not shown) [Example 118, (2-(2-methoxy-7-methylquinoxalin-5-yl)-4-methyl-7,8-dihydro-[1,4]dioxino[2′,3′:3,4]benzo[1,2-d]thiazol-7-yl)methyl (2-fluoropyridin-4-yl)carbamate]
2.1 | COc1cnc2c(-c3nc4c(C)cc5c(c4s3)OCC(COC(=O)Nc3cnc(C)c(C)c3)O5)cc(C)cc2n1 (stereo not shown) [Example 119, (2-(2-methoxy-7-methylquinoxalin-5-yl)-4-methyl-7,8-dihydro-[1,4]dioxino[2′,3′:3,4]benzo[1,2-d]thiazol-7-yl)methyl (5,6-dimethylpyridin-3-yl)carbamate]
0.9 | COc1cnc2c(-c3nc4c(C)cc5c(c4s3)OCC(COC(=O)Nc3ccc(C)nc3)O5)cc(C)cc2n1 (stereo not shown) [Example 120, (2-(2-methoxy-7-methylquinoxalin-5-yl)-4-methyl-7,8-dihydro-[1,4]dioxino[2′,3′:3,4]benzo[1,2-d]thiazol-7-yl)methyl (6-methylpyridin-3-yl)carbamate]
8.2 | COc1cnc2c(-c3nc4c(C)cc5c(c4s3)OCC(COC(=O)Nc3ccc(Oc4ccccc4)nc3)O5)cc(C)cc2n1 (stereo not shown) [Example 121, (2-(2-methoxy-7-methylquinoxalin-5-yl)-4-methyl-7,8-dihydro-[1,4]dioxino [2′,3′:3,4]benzo[1,2-d]thiazol-7-yl)methyl (6-phenoxypyridin-3-yl)carbamate]
2.5 | COc1cnc2c(-c3nc4c(C)cc5c(c4s3)OCC(COC(=O)Nc3cnc(F)c(C)c3)O5)cc(C)cc2n1 (stereo not shown) [Example 122, (2-(2-methoxy-7-methylquinoxalin-5-yl)-4-methyl-7,8-dihydro-[1,4]dioxino[2′,3′:3,4]benzo [1,2-d]thiazol-7-yl)methyl (6-fluoro-5-methylpyridin-3-yl)carbamate]
18 | COc1cnc2c(-c3nc4c(C)cc5c(c4s3)OCC(COC(=O)Nc3ccc(O)nc3)O5)cc(C)cc2n1 (stereo not shown) [Example 123, (2-(2-methoxy-7-methylquinoxalin-5-yl)-4-methyl-7,8-dihydro-[1,4]dioxino[2′,3′:3,4]benzo [1,2-d]thiazol-7-yl)methyl (6-hydroxypyridin-3-yl)carbamate]
3.2 | COc1cnc2c(-c3nc4c(C)cc5c(c4s3)OCC(COC(=O)Nc3cncc(C)c3)O5)cc(C)cc2n1 (stereo not shown) [Example 124, (2-(2-methoxy-7-methylquinoxalin-5-yl)-4-methyl-7,8-dihydro-[1,4]dioxino[2′,3′:3,4]benzo[1,2-d]thiazol-7-yl)methyl (5-methylpyridin-3-yl)carbamate]
35 | COc1cnc2c(-c3nc4c(C)cc5c(c4s3)OCC(COC(=O)Nc3ccc(-c4ccccc4)nc3)O5)cc(C)cc2n1 (stereo not shown) [Example 125, (2-(2-methoxy-7-methylquinoxalin-5-yl)-4-methyl-7,8-dihydro-[1,4]dioxino[2′,3′:3,4]benzo[1,2-d]thiazol-7-yl)methyl (6-phenylpyridin-3-yl)carbamate]
